Activity calls are given as the source filed them. The rule behind the calls is not given here.
Tests used:
Rattus norvegicus [1] = species on record: Rattus norvegicus; assay: Effective dose of compound required for in vitro effect on growth hormone release was measured in rat pituitary cell assay; assay type: functional, Pituitary gland cell; details: read-out: ED50 (the source's name)
Rattus norvegicus [2] = species on record: Rattus norvegicus; assay: Effective dose of compound required for in vitro effect on growth hormone release was measured in rat pituitary cell assay; IA means compound is inactive at 20 ug/mL concentration; assay type: functional; details: Pituitary gland cell
[3] = Rattus norvegicus, Pituitary gland cell

Row | SMILES | EC50 (Rattus norvegicus [1]; [3]) [nM] | also measured
1 | CC(C)(N)CC(=O)N[C@@H]1COc2ccccc2N(Cc2ccc(-c3ccccc3-c3nn[nH]n3)cc2)C1=O | 120 | –
2 | CC(C)(N)CC(=O)N[C@@H]1CS(=O)(=O)c2ccccc2N(Cc2ccc(-c3ccccc3-c3nn[nH]n3)cc2)C1=O | 1000 | –
3 | CC(C)(N)CC(=O)N[C@@H]1CC(O)c2ccccc2N(Cc2ccc(-c3ccccc3-c3nn[nH]n3)cc2)C1=O (some centres not stated) | 4000 | –
4 | CC(C)(N)CC(=O)NC1Sc2ccccc2N(Cc2ccc(-c3ccccc3-c3nn[nH]n3)cc2)C1=O (configuration not stated) | 500 | –
5 | CC(C)(N)CC(=O)N[C@@H]1C[S+]([O-])c2ccccc2N(Cc2ccc(-c3ccccc3-c3nn[nH]n3)cc2)C1=O (stereo in doubt; 22a) | – | EC50 (Rattus norvegicus [1]): 4000 nM
6 | CC(C)(N)CC(=O)NC1Cc2ccccc2N(Cc2ccc(-c3ccccc3-c3nn[nH]n3)cc2)C1=O (configuration not stated) | 2000 | –
7 | CC1=NC(NC(=O)CC(C)(C)N)C(=O)N(Cc2ccc(-c3ccccc3-c3nn[nH]n3)cc2)c2ccccc21 (configuration not stated) | – | ED50 (Rattus norvegicus [2]): inactive
8 | CC(C)(N)CC(=O)N[C@@H]1CC(=O)c2ccccc2N(Cc2ccc(-c3ccccc3-c3nn[nH]n3)cc2)C1=O | 2700 | –
9 | CC(C)(N)CC(=O)N[C@@H]1C[S+]([O-])c2ccccc2N(Cc2ccc(-c3ccccc3-c3nn[nH]n3)cc2)C1=O (stereo in doubt) | 3000 | –
10 | CC(C)(N)CC(=O)NC1CCc2ccccc2N(Cc2ccc(-c3ccccc3-c3nn[nH]n3)cc2)C1=O [L-158432] | 120 | –
11 | CC(C)(N)CC(=O)N[C@@H]1CCc2ccccc2N(Cc2ccc(-c3ccccc3-c3nn[nH]n3)cc2)C1=O | 60 | –
12 | CC(C)(N)CC(=O)N[C@@H]1CSc2ccccc2N(Cc2ccc(-c3ccccc3-c3nn[nH]n3)cc2)C1=O | 100 | –

Source: ChEMBL document CHEMBL1151011, “Heterocyclic analogs of the benzolactam nucleus of the non-peptidic growth hormone secretagogue L-692,429” (1995)
